Calls of active or inactive are those of the source. The rule behind the calls is not given here.
Test system: Epidermal growth factor receptor (Homo sapiens), P00533 [UNDEFINED MUTATION]
Settings: PC-9, dose 10-1000 nM

Chain of Epidermal growth factor receptor (Homo sapiens), P00533 [UNDEFINED MUTATION] (P00533 whole entry, looked up, change not shown): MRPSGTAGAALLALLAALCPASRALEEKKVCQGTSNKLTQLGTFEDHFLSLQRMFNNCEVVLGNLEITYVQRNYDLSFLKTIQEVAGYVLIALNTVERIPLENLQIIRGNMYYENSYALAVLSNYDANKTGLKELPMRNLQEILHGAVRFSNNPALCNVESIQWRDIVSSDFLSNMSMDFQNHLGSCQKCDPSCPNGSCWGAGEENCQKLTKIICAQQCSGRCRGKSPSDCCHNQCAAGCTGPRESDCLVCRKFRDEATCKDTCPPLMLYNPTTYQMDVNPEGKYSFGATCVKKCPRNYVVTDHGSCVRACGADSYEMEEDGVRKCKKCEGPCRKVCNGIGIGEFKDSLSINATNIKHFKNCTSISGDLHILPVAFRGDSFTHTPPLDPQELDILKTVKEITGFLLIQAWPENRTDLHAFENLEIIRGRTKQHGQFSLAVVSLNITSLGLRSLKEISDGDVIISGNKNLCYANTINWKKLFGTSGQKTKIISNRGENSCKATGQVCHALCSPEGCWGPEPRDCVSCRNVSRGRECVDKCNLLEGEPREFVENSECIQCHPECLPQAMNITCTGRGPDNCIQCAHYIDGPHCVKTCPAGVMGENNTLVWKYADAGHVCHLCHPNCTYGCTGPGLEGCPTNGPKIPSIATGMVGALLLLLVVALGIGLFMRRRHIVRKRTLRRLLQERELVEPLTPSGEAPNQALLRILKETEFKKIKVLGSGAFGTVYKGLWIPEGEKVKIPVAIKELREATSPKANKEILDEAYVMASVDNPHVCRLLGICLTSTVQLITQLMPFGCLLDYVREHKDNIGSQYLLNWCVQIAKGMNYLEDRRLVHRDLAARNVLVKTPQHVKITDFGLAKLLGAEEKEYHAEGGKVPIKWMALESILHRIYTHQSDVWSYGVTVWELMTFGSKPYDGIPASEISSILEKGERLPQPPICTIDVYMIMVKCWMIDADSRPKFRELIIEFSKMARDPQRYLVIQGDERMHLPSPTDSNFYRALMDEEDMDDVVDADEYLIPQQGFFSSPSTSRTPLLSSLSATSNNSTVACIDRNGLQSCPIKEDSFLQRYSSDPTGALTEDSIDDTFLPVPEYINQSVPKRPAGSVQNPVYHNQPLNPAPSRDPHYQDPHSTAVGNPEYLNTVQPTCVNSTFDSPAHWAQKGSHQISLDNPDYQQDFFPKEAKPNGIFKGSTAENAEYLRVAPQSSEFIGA

In the case of COc1cc(N2CCC(N3CCN(C)CC3)CC2)ccc1Nc1ncc(Cl)c(Nc2ccccc2P(C)(C)=O)n1 [BRIGATINIB], the inhibition is reported as “Active”.

— ChEMBL document CHEMBL5705906 (Nat Commun, 2017)
